According to paper PMC9797307, “Measurement of Pharmacokinetics and Tissue Distribution of Four Compounds from Nauclea officinalis in Rat Plasma and Tissues through HPLC-MS/MS” (Journal of Analytical Methods in Chemistry, 2022):

Columns and labels:
[1] = Stability of QC samples in rat plasma and tissue homogenates under different storage conditions; assay type: in vitro ADME; conditions: in % (unit assumed)
[2] = Tissue distribution in rats after oral administration of Nauclea officinalis extracts (HPLC-MS/MS); assay type: in vivo; conditions: after oral extract 2 g/kg
Protocol: Chromatographic analysis was performed on the LC-20ADXR System (Shimadzu, Japan). The Phenomenex Kinete EVO C18 100 Å (50 mm × 2.1 mm, 5 μm) column was used as the analytical column maintained at 40°C with (A) 0.1% formic acid aqueous solution and (B) acetonitrile as the mobile phase. […] The flow rate was 0.8 mL/min, and the injection volume was 5 μL.
Mass spectrometric detection was performed on an AB-SCIEX API 4000 mass spectrometer (AB SCIEX, Singapore) with ESI in negative ion multiple reaction monitoring (MRM) mode. The optimized instrument parameters were as follows: nebulizer gas: 50 psi, heated by N2 gas: 55 psi, ion spray voltage: −4500 V and temperature: 550°C; nebulizer, blowback gas, and collision gas were nitrogen; declustering potential (DP), collision energy (CE), and collision cell exit potential (CXP) of the four analytes and chloramphenicol (IS) are shown in Table 1.
Thirty rats were divided into five groups (n = 6) at random, which were orally administered Nauclea officinalis extracts at a dose of 2 g/kg for tissue distribution conducted at 0.5, 1, 2, 4, and 6 h. During the collection, the heart, liver, spleen, lung, kidney, stomach, small intestine, and brain were rinsed with physiological saline solution to get rid of the blood or content and blotted on filter paper and then weighed. Each tissue sample was accurately weighed and homogenized by using physiological saline at four times the tissue weight (w/v). The homogenates were stored at −80°C until analysis.
Drugs enter tissues that receive high blood flow first, followed by those that receive low blood flow.

Accuracy, Ambient temperature for 4 h ([1]; Brain, 2 ng/mL): 110.33 ± 7.55
Accuracy, Three freeze-thraw cycles ([1]; Brain, 2 ng/mL): 105.65 ± 10.92
Accuracy, −80°C for 30 days ([1]; Brain, 2 ng/mL): 90.73 ± 10.25
Accuracy, Ambient temperature for 4 h ([1]; Brain, 4 ng/mL): 89.12 ± 9.00
Accuracy, Three freeze-thraw cycles ([1]; Brain, 4 ng/mL): 90.68 ± 10.51
Accuracy, −80°C for 30 days ([1]; Brain, 4 ng/mL): 105.32 ± 9.72
Accuracy, Ambient temperature for 4 h ([1]; Brain, 100 ng/mL): 91.93 ± 9.93
Accuracy, Three freeze-thraw cycles ([1]; Brain, 100 ng/mL): 108.13 ± 9.91
Accuracy, −80°C for 30 days ([1]; Brain, 100 ng/mL): 105.48 ± 6.92
Accuracy, Ambient temperature for 4 h ([1]; Brain, 2400 ng/mL): 102.93 ± 5.79
Accuracy, Three freeze-thraw cycles ([1]; Brain, 2400 ng/mL): 96.57 ± 10.12
Accuracy, −80°C for 30 days ([1]; Brain, 2400 ng/mL): 97.98 ± 9.56
Accuracy, Ambient temperature for 4 h ([1]; Heart, 2 ng/mL): 102.73 ± 12.98
Accuracy, Three freeze-thraw cycles ([1]; Heart, 2 ng/mL): 91.72 ± 6.33
Accuracy, −80°C for 30 days ([1]; Heart, 2 ng/mL): 88.98 ± 5.73
Accuracy, Ambient temperature for 4 h ([1]; Heart, 4 ng/mL): 96.88 ± 11.06
Accuracy, Three freeze-thraw cycles ([1]; Heart, 4 ng/mL): 99.03 ± 10.17
Accuracy, −80°C for 30 days ([1]; Heart, 4 ng/mL): 102.27 ± 10.30
Accuracy, Ambient temperature for 4 h ([1]; Heart, 100 ng/mL): 112.83 ± 9.11
Accuracy, Three freeze-thraw cycles ([1]; Heart, 100 ng/mL): 111.00 ± 7.72
Accuracy, −80°C for 30 days ([1]; Heart, 100 ng/mL): 112.62 ± 8.15
Accuracy, Ambient temperature for 4 h ([1]; Heart, 2400 ng/mL): 108.60 ± 8.41
Accuracy, Three freeze-thraw cycles ([1]; Heart, 2400 ng/mL): 110.55 ± 8.11
Accuracy, −80°C for 30 days ([1]; Heart, 2400 ng/mL): 104.85 ± 10.69
Accuracy, Ambient temperature for 4 h ([1]; Kidney, 2 ng/mL): 110.07 ± 7.34
Accuracy, Three freeze-thraw cycles ([1]; Kidney, 2 ng/mL): 97.22 ± 7.67
Accuracy, −80°C for 30 days ([1]; Kidney, 2 ng/mL): 89.87 ± 9.23
Accuracy, Ambient temperature for 4 h ([1]; Kidney, 4 ng/mL): 87.63 ± 7.76
Accuracy, Three freeze-thraw cycles ([1]; Kidney, 4 ng/mL): 87.60 ± 9.26
Accuracy, −80°C for 30 days ([1]; Kidney, 4 ng/mL): 89.60 ± 9.05
Accuracy, Ambient temperature for 4 h ([1]; Kidney, 100 ng/mL): 112.00 ± 7.01
Accuracy, Three freeze-thraw cycles ([1]; Kidney, 100 ng/mL): 111.17 ± 7.44
Accuracy, −80°C for 30 days ([1]; Kidney, 100 ng/mL): 103.22 ± 11.32
Accuracy, Ambient temperature for 4 h ([1]; Kidney, 2400 ng/mL): 100.55 ± 5.11
Accuracy, Three freeze-thraw cycles ([1]; Kidney, 2400 ng/mL): 100.45 ± 3.96
Accuracy, −80°C for 30 days ([1]; Kidney, 2400 ng/mL): 101.23 ± 4.69
Accuracy, Ambient temperature for 4 h ([1]; Liver, 2 ng/mL): 88.47 ± 6.93
Accuracy, Three freeze-thraw cycles ([1]; Liver, 2 ng/mL): 88.47 ± 7.22
Accuracy, −80°C for 30 days ([1]; Liver, 2 ng/mL): 87.43 ± 7.74
Accuracy, Ambient temperature for 4 h ([1]; Liver, 4 ng/mL): 86.27 ± 7.32
Accuracy, Three freeze-thraw cycles ([1]; Liver, 4 ng/mL): 86.00 ± 6.23
Accuracy, −80°C for 30 days ([1]; Liver, 4 ng/mL): 87.30 ± 4.35
Accuracy, Ambient temperature for 4 h ([1]; Liver, 100 ng/mL): 99.82 ± 2.89
Accuracy, Three freeze-thraw cycles ([1]; Liver, 100 ng/mL): 102.27 ± 4.97
Accuracy, −80°C for 30 days ([1]; Liver, 100 ng/mL): 87.13 ± 5.77
Accuracy, Ambient temperature for 4 h ([1]; Liver, 2400 ng/mL): 104.17 ± 2.14
Accuracy, Three freeze-thraw cycles ([1]; Liver, 2400 ng/mL): 99.98 ± 1.86
Accuracy, −80°C for 30 days ([1]; Liver, 2400 ng/mL): 87.02 ± 5.24
Accuracy, Ambient temperature for 4 h ([1]; Lung, 2 ng/mL): 103.27 ± 8.01
Accuracy, Three freeze-thraw cycles ([1]; Lung, 2 ng/mL): 112.93 ± 9.57
Accuracy, −80°C for 30 days ([1]; Lung, 2 ng/mL): 113.77 ± 9.20
Accuracy, Ambient temperature for 4 h ([1]; Lung, 4 ng/mL): 101.83 ± 6.41
Accuracy, Three freeze-thraw cycles ([1]; Lung, 4 ng/mL): 100.07 ± 10.39
Accuracy, −80°C for 30 days ([1]; Lung, 4 ng/mL): 98.77 ± 6.15
Accuracy, Ambient temperature for 4 h ([1]; Lung, 100 ng/mL): 111.50 ± 5.47
Accuracy, Three freeze-thraw cycles ([1]; Lung, 100 ng/mL): 110.17 ± 7.14
Accuracy, −80°C for 30 days ([1]; Lung, 100 ng/mL): 110.03 ± 9.33
Accuracy, Ambient temperature for 4 h ([1]; Lung, 2400 ng/mL): 100.67 ± 10.17
Accuracy, Three freeze-thraw cycles ([1]; Lung, 2400 ng/mL): 104.88 ± 8.23
Accuracy, −80°C for 30 days ([1]; Lung, 2400 ng/mL): 110.17 ± 4.54
Accuracy, Ambient temperature for 4 h ([1]; Plasma, 2 ng/mL): 101.68 ± 8.39
Accuracy, Three freeze-thraw cycles ([1]; Plasma, 2 ng/mL): 101.23 ± 12.44
Accuracy, −80°C for 30 days ([1]; Plasma, 2 ng/mL): 93.35 ± 10.78
Accuracy, Ambient temperature for 4 h ([1]; Plasma, 4 ng/mL): 86.78 ± 6.16
Accuracy, Three freeze-thraw cycles ([1]; Plasma, 4 ng/mL): 95.02 ± 5.39
Accuracy, −80°C for 30 days ([1]; Plasma, 4 ng/mL): 98.92 ± 12.32
Accuracy, Ambient temperature for 4 h ([1]; Plasma, 100 ng/mL): 112.33 ± 3.72
Accuracy, Three freeze-thraw cycles ([1]; Plasma, 100 ng/mL): 100.68 ± 6.22
Accuracy, −80°C for 30 days ([1]; Plasma, 100 ng/mL): 113.17 ± 4.96
Accuracy, Ambient temperature for 4 h ([1]; Plasma, 2400 ng/mL): 98.40 ± 5.56
Accuracy, Three freeze-thraw cycles ([1]; Plasma, 2400 ng/mL): 91.98 ± 4.75
Accuracy, −80°C for 30 days ([1]; Plasma, 2400 ng/mL): 112.67 ± 7.58
Accuracy, Ambient temperature for 4 h ([1]; Small intestine, 2 ng/mL): 105.00 ± 8.20
Accuracy, Three freeze-thraw cycles ([1]; Small intestine, 2 ng/mL): 103.90 ± 4.49
Accuracy, −80°C for 30 days ([1]; Small intestine, 2 ng/mL): 101.42 ± 7.82
Accuracy, Ambient temperature for 4 h ([1]; Small intestine, 4 ng/mL): 91.73 ± 4.49
Accuracy, Three freeze-thraw cycles ([1]; Small intestine, 4 ng/mL): 99.78 ± 7.70
Accuracy, −80°C for 30 days ([1]; Small intestine, 4 ng/mL): 106.70 ± 5.43
Accuracy, Ambient temperature for 4 h ([1]; Small intestine, 100 ng/mL): 95.90 ± 12.31
Accuracy, Three freeze-thraw cycles ([1]; Small intestine, 100 ng/mL): 100.93 ± 12.33
Accuracy, −80°C for 30 days ([1]; Small intestine, 100 ng/mL): 99.07 ± 12.41
Accuracy, Ambient temperature for 4 h ([1]; Small intestine, 2400 ng/mL): 112.00 ± 5.37
Accuracy, Three freeze-thraw cycles ([1]; Small intestine, 2400 ng/mL): 111.67 ± 6.12
Accuracy, −80°C for 30 days ([1]; Small intestine, 2400 ng/mL): 110.83 ± 6.68
Accuracy, Ambient temperature for 4 h ([1]; Spleen, 2 ng/mL): 97.62 ± 8.11
Accuracy, Three freeze-thraw cycles ([1]; Spleen, 2 ng/mL): 105.55 ± 7.56
Accuracy, −80°C for 30 days ([1]; Spleen, 2 ng/mL): 109.70 ± 13.05
Accuracy, Ambient temperature for 4 h ([1]; Spleen, 4 ng/mL): 105.82 ± 9.91
Accuracy, Three freeze-thraw cycles ([1]; Spleen, 4 ng/mL): 103.68 ± 9.71
Accuracy, −80°C for 30 days ([1]; Spleen, 4 ng/mL): 98.88 ± 4.16
Accuracy, Ambient temperature for 4 h ([1]; Spleen, 100 ng/mL): 112.00 ± 7.82
Accuracy, Three freeze-thraw cycles ([1]; Spleen, 100 ng/mL): 106.82 ± 6.88
Accuracy, −80°C for 30 days ([1]; Spleen, 100 ng/mL): 111.17 ± 7.17
Accuracy, Ambient temperature for 4 h ([1]; Spleen, 2400 ng/mL): 101.52 ± 7.73
Accuracy, Three freeze-thraw cycles ([1]; Spleen, 2400 ng/mL): 106.67 ± 5.43
Accuracy, −80°C for 30 days ([1]; Spleen, 2400 ng/mL): 104.73 ± 7.04
Accuracy, Ambient temperature for 4 h ([1]; Stomach, 2 ng/mL): 113.08 ± 11.06
Accuracy, Three freeze-thraw cycles ([1]; Stomach, 2 ng/mL): 113.58 ± 8.22
Accuracy, −80°C for 30 days ([1]; Stomach, 2 ng/mL): 109.08 ± 9.97
Accuracy, Ambient temperature for 4 h ([1]; Stomach, 4 ng/mL): 102.70 ± 10.17
Accuracy, Three freeze-thraw cycles ([1]; Stomach, 4 ng/mL): 98.87 ± 9.82
Accuracy, −80°C for 30 days ([1]; Stomach, 4 ng/mL): 89.87 ± 7.04
Accuracy, Ambient temperature for 4 h ([1]; Stomach, 100 ng/mL): 93.75 ± 8.65
Accuracy, Three freeze-thraw cycles ([1]; Stomach, 100 ng/mL): 93.47 ± 6.76
Accuracy, −80°C for 30 days ([1]; Stomach, 100 ng/mL): 107.33 ± 5.89
Accuracy, Ambient temperature for 4 h ([1]; Stomach, 2400 ng/mL): 107.17 ± 8.68
Accuracy, Three freeze-thraw cycles ([1]; Stomach, 2400 ng/mL): 100.23 ± 4.63
Accuracy, −80°C for 30 days ([1]; Stomach, 2400 ng/mL): 99.73 ± 10.09
Peak concentration in most tissues versus plasma [2]: much lower than in plasma
Compound: O=C(/C=C/c1ccc(O)c(O)c1)O[C@@H]1C[C@](O)(C(=O)O)C[C@@H](O)[C@H]1O [Chlorogenic acid]
